Read-outs that look alike come from different tables or passages of the source.
Assays:
[1] = biological target: T1, KRAS^Q61K in Calu-6 cells (Homo sapiens, UniProt P01116, Q61K); experiment: Endogenous KRAS degradation by Western blot in Calu-6 cells; type: cell-based; conditions: Calu-6 (Q61K)
T1 construct: host or cells: Calu-6

[2] = biological target: T2, KRAS^G12R in Cal-62 cells (Homo sapiens, UniProt P01116, G12R); experiment: Endogenous KRAS degradation by Western blot in Cal-62 cells; type: cell-based; conditions: Cal-62 (G12R)
T2 construct: Potent degradation of endogenous KRAS^G12R was achieved by ACBI4 in the Cal-62 cell line; host or cells: Cal-62

[3] = biological target: T3, HiBiT-KRAS^G12D in GP5d cells (Homo sapiens, UniProt P01116, G12D); experiment: HiBiT degradation assay, HiBiT-KRAS^G12D GP5d cells; type: cell-based; conditions: for Dmax / DC50: Gp5D (HiBit-G12D)
T3 construct: host or cells: GP5d HiBiT KRAS G12D

KRAS^G12R in KP-2 cells = biological target: T4, KRAS^G12R in KP-2 cells (Homo sapiens, UniProt P01116, G12R); experiment: Endogenous KRAS degradation by Western blot in KP-2 cells; type: cell-based; conditions: KP-2 (G12R)
T4 construct: host or cells: KP-2

KRAS^G12D in GP5d cells = biological target: T5, KRAS^G12D in GP5d cells (Homo sapiens, UniProt P01116, G12D); experiment: Endogenous KRAS degradation by Western blot in GP5d cells; type: cell-based
T5 construct: comparison of the degradative effect on endogenous KRAS; host or cells: GP5d

[4] = biological target: T6, HiBiT-KRAS^G12R in Cal-62 cells (Homo sapiens, UniProt P01116, G12R); experiment: HiBiT degradation assay, HiBiT-KRAS^G12R Cal-62 cells; type: cell-based; conditions: Cal-62 (HiBitG12R)
T6 construct: generated a HiBiT-KRAS^G12R Cal-62 knock-in cell line using the CRISPR Cas9 technology; endogenous in cells; host or cells: Cal-62 HiBiT KRAS G12R (in-house CRISPR knock-in)
Experimental: (Gibco) with 10% FBS in a humidiﬁed cell incubator at 37 °C and 5% CO2.
Plasmids pSpCas9 BB-2A-GFP (PX458) containing gRNA, Cas9 and GFP sequences and […] plasmid containing ssDNA donor template were purchased from Genscript. Cal-62 cells were plated at 5x10^5 cells in a 6-well plate and left to adhere overnight. The next day, the transfection plasmids (0.5 µg of each gRNA plasmid and 0.5 µg of donor template) were diluted in Opti-MEM, combined with Lipofectamine solution in Opti-mem according to the manufacturer’s protocol and incubated for 20 min at RT. The mixture was added to the cells and incubated for 24 h. The next day the media was exchanged, and the cells were left to incubate for another 24 h. GFP positive cells were single-cell sorted into 96-well plates using ﬂuorescence-activated cell sorting (FACS) at the Flow Cytometry and Cell Sorting Facility (University of Dundee). Sorted cells were left to grow in conditioned media supplemented with 20% FBS for 3 weeks. Formed colonies were tested for the expression of HiBiT KRAS using the Nano-Glo® HiBiT Lytic system (Promega). The positive clones were additionally tested for insertion of the HiBiT tag by western blotting for KRAS (mouse anti-KRAS, LsBio) and HiBiT (mouse anti-HiBiT, Promega) and the insert was further conﬁrmed by Sanger sequencing. […]
gRNA1: 5’ […] 3’, gRNA2: 5’ […] 3’, gRNA 3: 5’ […]
template DNA: 5’ caatccagctt tatttgacac tcattctctc aactctcatc tgattcttac tgttaatatt tatccaagag aactactgcc atgatgcttt aaaagttttt ctgtagctgt tgcatattga cttctaacac ttagaggtgg gggtccacta ggaaaactgt aacaataaga gtggagatag ctgtcagcaa cttttgtgag ggtgtgctac agggtgtaga gcactgtgaa gtctctacat gagtgaagtc atgatatgat cctttgagag cctttagccg ccgcagaaca gcagtctggc tatttagata gaacaacttg attttaagat aaaagaactg tctatgtagc atttatgcat ttttcttaag cgtcgatgga ggagtttgta aatgaagtac agttcattac gatacacgtc tgcagtcaac tggaattttc atgattgaat tttgtaaggt attttgaaat aatttttcat ataaaggtga gtttgtatta aaaggtactg gtggagtatt tgatagtgta ttaaccttat gtgtgacatg ttctaatata gtcacatttt cattattttt attataaggc ctgctgaaa […]
atg[…]act gaGtaCaaGctCgtAgtagttggag ctCgtggc gta ggc aag agt gcc ttA acAatCcaActaattcagaatcat tttgtggacg aatatgatcc aacaatagag gtaaatcttg ttttaatatg catattactg gtgcaggacc attctttgat acagataaag gtttctctga ccattttcat gagtacttat tacaagataa ttatgctgaa agttaagtta tctgaaatgt accttgggtt tcaagttata tgtaaccatt aatatgggaa ctttactttc cttgggagta tgtcagggtc catgatgttc actctctgtg cattttgatt ggaagtgtat ttcagagttt cgtgagaggg tagaaatttg tatcctatct ggacctaaaa gacaatcttt ttattgtaac ttttattttt atgggtttct tggtattgtg acatcatatg taaaggttag atttaattgt actagtgaaa tataattgtt tgatggttga tttttttaaa cttcatcagc agtattttcc tatcttcttc tcaacattag agaacctaca actaccggat aaattttaca aaatgaatta tttgcctaag gtgtggttta tataaaggta ctattaccaa ctttaccttt gctttgttgt catttttaaa tttactcaag gaaatactag gatttaaaaa aaaattcctt 3’
Degradation via Detection of Split Nanoluciferase (HiBiT)
To assess PROTAC-mediated degradation of HiBiT-tagged KRAS constructs, cells were seeded at […]
further incubated at 37 °C for 4 and 24 h. Following incubation, 20 µL per well of Promega Nano-Glo® HiBiT lytic detection reagent mix (Promega Nano-Glo® HiBiT Lytic Detection System […]
plotted as percent of DMSO control.

KRAS^Q61L in SW948 cells = biological target: T7, KRAS^Q61L in SW948 cells (Homo sapiens, UniProt P01116, Q61L); experiment: Endogenous KRAS degradation by Western blot in SW948 cells; type: cell-based
T7 construct: host or cells: SW948

Calu-6 cells = experiment: CellTiter-Glo anti-proliferation, Calu-6; type: cell-based, human; conditions: Calu-6 (Q61K)
[5] = biological target: T6, HiBiT-KRAS^G12R in Cal-62 cells; experiment: Kinetic degradation (live mode), Cal-62 HiBiT KRAS^G12R cells; type: cell-based; conditions: Cal62-HiBit (G12R)
Cal-62 cells = experiment: CellTiter-Glo anti-proliferation, Cal-62; type: cell-based, human; conditions: Cal-62 (G12R)
KRAS^WT-GDP = KRAS^WT-GDP (Homo sapiens, UniProt P01116); experiment: Binary SPR KRAS^WT-GDP (protocol from Lito et al.); conditions: read-out: KRAS^WT-GDP KD
[6] = Homo sapiens, 72 h, read-out: CTG 72h Ic50

Row | Compound | Dmax ([1]; 4 h, read-out: DMax 4h) | Dmax ([2]; 18 h, read-out: DMax 18h) | DC50 ([2]; 18 h, read-out: Dc50 18h) | Dmax ([3]; 4 h, read-out: DMax 4h) | DC50 ([3]; 4 h, read-out: Dc50 4h) | Dmax ([3]; 24 h, read-out: DMax 24h) | DC50 ([3]; 24 h, read-out: Dc50 24h) | Dmax (KRAS^G12R in KP-2 cells; 18 h, read-out: DMax 18h) | DC50 (KRAS^G12R in KP-2 cells; 18 h, read-out: Dc50 18h) | Dmax (KRAS^G12D in GP5d cells; 4 h, read-out: DMax 4h) | DC50 (KRAS^G12D in GP5d cells; 4 h, read-out: Dc50 4h) | Dmax (KRAS^G12D in GP5d cells; 18 h, read-out: DMax 18h) | Dmax ([4]; 24 h, read-out: DMax 24h) | DC50 ([4]; 24 h, read-out: Dc50 24h) | Dc50 4h (KRAS^Q61L in SW948 cells; 4 h) | Dmax (KRAS^Q61L in SW948 cells; 18 h, read-out: DMax 18h) | 1/K (Tau) [5] | Plateau (degradation rate) [5] | Plateu/ Tau [5] | also measured
1 | CC(C)C(C(=O)N1C[C@H](O)C[C@H]1C(=O)NCc1ccc2cnn(C)c2c1)n1nnc2c1CCC(CCCN1CCCN(c3nccc(-c4noc([C@@]5(C)CCCc6sc(N)c(C#N)c65)n4)n3)[C@@H](C)C1)C2 (mixture of isomers) [Compound 4] | 25% | 93% | 418 nM | 83% | 14 nM | 94% | 4 nM | 70% | 224 nM | 83.5% | 68 nM | 96.5% | 87% | 183 nM | unstable | 50% | 1.972 µM | 0.2614 min⁻¹ | 2207 M⁻¹ s⁻¹ | DC50 ([1]; 4 h, read-out: Dc50 4h): 146 nM; Dmax ([1]; 18 h, read-out: DMax 18h): 72%; DC50 ([1]; 18 h, read-out: Dc50 18h): 187 nM; Dmax ([2]; 4 h, read-out: DMax 4h): 64%; DC50 ([2]; 4 h, read-out: Dc50 4h): 1530 nM; fold improvement in DC50 over 3 ([3]; HiBiT-KRAS^G12D, 24 h): ~9 fold; Dmax (KRAS^G12R in KP-2 cells; 4 h, read-out: DMax 4h): 37%; DC50 (KRAS^G12R in KP-2 cells; 4 h, read-out: Dc50 4h): 6 nM; DC50 (KRAS^G12D in GP5d cells; 18 h, read-out: Dc50 18h): 16 nM; Dmax ([4]; 4 h, read-out: DMax 4h): 76%; DC50 ([4]; 4 h, read-out: Dc50 4h): 163 nM; Dmax (KRAS^Q61L in SW948 cells; 4 h, read-out: DMax 4h): 49%; Dc50 18h (KRAS^Q61L in SW948 cells; 18 h): unstable; CTG 72h Ic50 (Calu-6 cells): unstable; IC50 (Cal-62 cells; [6]): 488 nM
2 | Cc1ncsc1-c1ccc([C@H](CO)NC(=O)[C@@H]2C[C@@H](O)CN2C(=O)[C@H](C(C)C)n2cc(OCCCCN3CCCN(c4nccc(-c5noc([C@@]6(C)CCCc7sc(N)c(C#N)c76)n5)n4)[C@@H](C)C3)nn2)cc1 [ACBI3, reference compound] | 11% | 9% | 282 nM | 79% | 9.9 nM | 94% | 2.5 nM | 50% | 961 nM | 98.3% | 7.3 nM | 100% | 31% | 114 nM | unstable | 45% | unstable | unstable | unstable | Dc50 4h ([1]; 4 h): unstable; DMax 18h ([1]; 18 h): unstable; Dc50 18h ([1]; 18 h): unstable; DMax 4h ([2]; 4 h): unstable; Dc50 4h ([2]; 4 h): unstable; Kd (KRAS^WT-GDP): 4.9 ± 2.6 nM; DMax 4h (KRAS^G12R in KP-2 cells; 4 h): unstable; Dc50 4h (KRAS^G12R in KP-2 cells; 4 h): unstable; DMax 4h ([4]; 4 h): unstable; Dc50 4h ([4]; 4 h): unstable; DMax 4h (KRAS^Q61L in SW948 cells; 4 h): unstable; DC50 (KRAS^Q61L in SW948 cells; 18 h, read-out: Dc50 18h): 10000 nM; IC50 (Calu-6 cells; [6]): 338 nM; CTG 72h Ic50 (Cal-62 cells): unstable
